Reference: the NIST ThermoML archive (doi:10.1016/j.jct.2006.05.008)
Numbers after ± are expanded uncertainties.

Test: molar heat capacity at constant pressure
Settings: 101.33 kPa, Small (less than 1 g) adiabatic calorimetry

CCn1cc[n+](C)c1.[Br-] [1-ethyl-3-methylimidazolium bromide]
molar heat capacity at constant pressure [J/K/mol]
Settings | Crystal | Liquid
130 K | 114.2 ± 0.67 | –
132.03 K | 115.39 ± 0.66 | –
135.01 K | 116.87 ± 0.67 | –
138 K | 118.34 ± 0.67 | –
140 K | 119.1 ± 0.67 | –
140.99 K | 119.85 ± 0.68 | –
143.99 K | 121.33 ± 0.69 | –
146.99 K | 122.81 ± 0.69 | –
149.99 K | 124.27 ± 0.7 | –
150 K | 124.1 ± 0.67 | –
152.99 K | 125.74 ± 0.7 | –
156 K | 127.17 ± 0.71 | –
159 K | 128.63 ± 0.71 | –
160 K | 128.9 ± 0.75 | –
162.08 K | 130.18 ± 0.72 | –
165.15 K | 131.64 ± 0.73 | –
168.15 K | 133.08 ± 0.73 | –
170 K | 133.7 ± 0.75 | –
171.16 K | 134.55 ± 0.74 | –
174.16 K | 136.01 ± 0.74 | –
177.16 K | 137.5 ± 0.75 | –
180 K | 138.6 ± 0.75 | –
180.15 K | 138.89 ± 0.75 | –
183.15 K | 140.38 ± 0.76 | –
186.14 K | 141.85 ± 0.77 | –
189.13 K | 143.32 ± 0.77 | –
190 K | 143.6 ± 0.75 | –
192.12 K | 144.81 ± 0.78 | –
195.1 K | 146.31 ± 0.79 | –
198.07 K | 147.84 ± 0.79 | –
200 K | 148.7 ± 0.83 | –
201.05 K | 149.45 ± 0.8 | –
204.01 K | 151.13 ± 0.8 | –
206.98 K | 152.7 ± 0.81 | –
209.94 K | 154.27 ± 0.82 | –
210 K | 153.9 ± 0.83 | –
212.9 K | 155.83 ± 0.82 | –
215.85 K | 157.4 ± 0.83 | –
218.78 K | 158.98 ± 0.84 | –
220 K | 159.2 ± 0.83 | –
221.71 K | 160.52 ± 0.84 | –
224.63 K | 162.13 ± 0.85 | –
227.55 K | 163.72 ± 0.85 | –
230 K | 164.7 ± 0.83 | –
230.45 K | 165.37 ± 0.86 | –
233.35 K | 166.97 ± 0.87 | –
236.24 K | 168.5 ± 0.87 | –
239.13 K | 170.14 ± 0.88 | –
240 K | 170.4 ± 0.92 | –
242 K | 171.88 ± 0.89 | –
244.87 K | 173.49 ± 0.89 | –
247.74 K | 175.15 ± 0.9 | –
250 K | 176.2 ± 0.92 | –
250.59 K | 176.83 ± 0.91 | –
253.44 K | 178.51 ± 0.91 | –
256.25 K | 180.2 ± 0.92 | –
259.07 K | 181.98 ± 0.93 | –
260 K | 182.2 ± 0.92 | –
261.87 K | 183.73 ± 0.93 | –
264.68 K | 185.47 ± 0.94 | –
267.47 K | 187.2 ± 0.95 | –
270 K | 188.3 ± 0.92 | –
270.26 K | 188.95 ± 0.96 | –
273.03 K | 190.7 ± 0.96 | –
275.79 K | 192.52 ± 0.97 | –
278.53 K | 194.49 ± 0.97 | –
280 K | 195.1 ± 1 | –
281.26 K | 196.34 ± 0.99 | –
283.96 K | 198.2 ± 0.99 | –
286.66 K | 199.93 ± 0.99 | –
289.36 K | 201.96 ± 1 | –
290 K | 202 ± 1 | –
292.03 K | 203.78 ± 1 | –
294.7 K | 205.78 ± 1 | –
297.36 K | 207.81 ± 1 | –
298.15 K | 207.5 ± 1 | –
299.92 K | 209.77 ± 1 | –
300 K | 208.8 ± 1 | –
310 K | 215.7 ± 1.1 | –
320 K | 222.5 ± 1.1 | –
330 K | 229.4 ± 1.1 | –
340 K | 236.3 ± 1.2 | –
347.66 K | – | 265.34 ± 1.3
349.92 K | 243.1 ± 1.2 | 264.8 ± 1.2
350 K | – | 264.8 ± 1.2
350.15 K | – | 266.1 ± 1.3
352.61 K | – | 266.89 ± 1.3
353.91 K | – | 267.52 ± 1.3
355.07 K | – | 267.71 ± 1.3
357.53 K | – | 268.53 ± 1.3
359.99 K | – | 269.33 ± 1.3
360 K | – | 268.6 ± 1.2
361.35 K | – | 270.21 ± 1.3
362.45 K | – | 270.78 ± 1.3
364.95 K | – | 271.95 ± 1.3
366.81 K | – | 270.88 ± 1.3
367.5 K | – | 272.58 ± 1.3
370 K | – | 272.4 ± 1.3
